In PubChem BioAssay AID330 (DTP/NCI, 2004):
Values joined by “and” are separate entries in the source; they are usually repeats but may differ in a detail not shown here. Equal entries are not always repeated. Inconclusive results and toxic doses are left out. How the source made its calls: active means survival T/C of 150% or more; inactive means T/C below 125% in these data.

System: P388 leukemia ip, CD2F1 mice, survival T/C
Assay: NCI In Vivo Anticancer Drug Screen. Data for tumor model P388 Leukemia (intraperitoneal) in CD2F1 (CDF1) mice
Conditions: endpoint: median survival time, higher = longer survival
In short: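 Mice carrying the transplanted tumor received test compound or vehicle. Survival was recorded in each group, and the value is the treated-group measurement divided by that of the vehicle-treated control group.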

[1] = dose: 12.5 mg/kg/injection, schedule: Q01DX009 (ip), vehicle: saline
[2] = dose: 25.0 mg/kg/injection, schedule: Q01DX009 (ip), vehicle: saline
[3] = dose: 50.0 mg/kg/injection, schedule: Q01DX009 (ip), vehicle: saline
[4] = dose: 60.0 mg/kg/injection, schedule: Q01DX005 (ip), vehicle: saline with Tween-80
[5] = dose: 50.0 mg/kg/injection, schedule: Q01DX005 (ip), vehicle: Klucel (hydroxypropylcellulose) (HPC)
[6] = dose: 100.0 mg/kg/injection, schedule: Q01DX005 (ip), vehicle: Klucel (hydroxypropylcellulose) (HPC)
[7] = dose: 60.0 mg/kg/injection, schedule: Q01DX005 (ip), vehicle: saline
[8] = dose: 120.0 mg/kg/injection, schedule: Q01DX005 (ip), vehicle: saline
[9] = dose: 50.0 mg/kg/injection, schedule: Q01DX009 (ip), vehicle: saline with Tween-80
[10] = dose: 100.0 mg/kg/injection, schedule: Q01DX009 (ip), vehicle: saline with Tween-80
[11] = dose: 200.0 mg/kg/injection, schedule: Q01DX009 (ip), vehicle: saline with Tween-80
[12] = dose: 100.0 mg/kg/injection, schedule: Q01DX009 (ip), vehicle: saline

Measured: T/C

S=C(Nc1ccc(Br)cc1)SCc1ccco1
inactive: [1] 106 % of control | [2] 106 % of control | [3] 100 % of control | dose: 50.0 mg/kg/injection, schedule: Q01DX009 (ip), vehicle: suspension in saline 104 % of control | dose: 100.0 mg/kg/injection, schedule: Q01DX009 (ip), vehicle: suspension in saline 93 % of control | dose: 200.0 mg/kg/injection, schedule: Q01DX009 (ip), vehicle: suspension in saline 111 % of control

O=S1(=O)OCCCCO1
inactive: dose: 12.5 mg/kg/injection, schedule: Q01DX005 (ip), vehicle: saline 107 % of control | dose: 25.0 mg/kg/injection, schedule: Q01DX005 (ip), vehicle: saline 100 % of control

O=C(Nc1ccc(Cc2ccc(NC(=O)C(c3ccccc3)c3ccccc3)cc2)cc1)C(c1ccccc1)c1ccccc1
inactive: dose: 50.0 mg/kg/injection, schedule: Q01DX005 (ip), vehicle: saline with Tween-80 86 % of control | dose: 100.0 mg/kg/injection, schedule: Q01DX005 (ip), vehicle: saline with Tween-80 95 % of control | dose: 200.0 mg/kg/injection, schedule: Q01DX005 (ip), vehicle: saline with Tween-80 92 % of control

C[n+]1ccc2ccccc2c1
inactive: dose: 15.0 mg/kg/injection, schedule: Q01DX005 (ip), vehicle: saline with Tween-80 109 % of control | dose: 30.0 mg/kg/injection, schedule: Q01DX005 (ip), vehicle: saline with Tween-80 100 % of control | [4] 100 % of control and 104 % of control

CCOC(=O)c1nc(OCC)nc(OCC)c1I
inactive: dose: 12.5 mg/kg/injection, schedule: Q01DX009 (ip), vehicle: distilled water + Tween-80 112 % of control | dose: 25.0 mg/kg/injection, schedule: Q01DX009 (ip), vehicle: distilled water + Tween-80 107 % of control | dose: 50.0 mg/kg/injection, schedule: Q01DX009 (ip), vehicle: distilled water + Tween-80 96 % of control | dose: 100.0 mg/kg/injection, schedule: Q01DX009 (ip), vehicle: distilled water + Tween-80 95 % of control

C/C(=N\NC(=S)N1CCN(c2ccccn2)CC1)c1cccc(C)n1
inactive: dose: 6.25 mg/kg/injection, schedule: Q01DX005 (ip), vehicle: saline with Tween-80 101 % of control and 107 % of control | dose: 12.5 mg/kg/injection, schedule: Q01DX005 (ip), vehicle: saline with Tween-80 103 % of control and 124 % of control | dose: 25.0 mg/kg/injection, schedule: Q01DX005 (ip), vehicle: saline with Tween-80 118 % of control

CC(C)(C)/[N+]([O-])=C/C=C(/C=[N+](\[O-])C(C)(C)C)S(=O)(=O)c1ccccc1
inactive: [4] 96 % of control | dose: 120.0 mg/kg/injection, schedule: Q01DX005 (ip), vehicle: saline with Tween-80 90 % of control | dose: 240.0 mg/kg/injection, schedule: Q01DX005 (ip), vehicle: saline with Tween-80 90 % of control

CSC(=O)NC(=O)NC(=O)c1ccc([N+](=O)[O-])cc1
inactive: [5] 91 % of control | [6] 91 % of control

CN1CC(O)C2=CC(=O)C(=O)C=C21 (stereo not drawn)
inactive: dose: 30.0 mg/kg/injection, schedule: Q01DX005 (ip), vehicle: saline 117 % of control | [7] 120 % of control | [8] 119 % of control

O=C(O)/C=C/C(=O)Nc1ccc(N=Nc2ccccc2)cc1
inactive: dose: 50.0 mg/kg/injection, schedule: Q04DX003 (ip), vehicle: saline with Tween-80 104 % of control | dose: 100.0 mg/kg/injection, schedule: Q04DX003 (ip), vehicle: saline with Tween-80 100 % of control | dose: 200.0 mg/kg/injection, schedule: Q04DX003 (ip), vehicle: saline with Tween-80 90 % of control

COc1ccccc1CC(N)c1nn[nH]n1 (stereo not drawn)
inactive: dose: 25.0 mg/kg/injection, schedule: Q01DX009 (ip), vehicle: saline with Tween-80 96 % of control | [9] 98 % of control and 99 % of control and 101 % of control | [10] 104 % of control and 89 % of control and 96 % of control | [11] 91 % of control and 97 % of control | dose: 400.0 mg/kg/injection, schedule: Q01DX009 (ip), vehicle: saline with Tween-80 96 % of control

COc1ccc2c(C)cc(N/N=C/c3ccccc3)nc2c1
inactive: [5] 89 % of control | [6] 98 % of control | dose: 200.0 mg/kg/injection, schedule: Q01DX005 (ip), vehicle: Klucel (hydroxypropylcellulose) (HPC) 98 % of control

CC(=O)Oc1ccc(/C=N\N(C)C)cc1
inactive: [3] 102 % of control | [12] 95 % of control

O=C1C(Cl)=C(NCCCN(CCO)CCO)C(=O)c2ccccc21
inactive: [1] 100 % of control | [2] 107 % of control and 88 % of control | [3] 107 % of control and 108 % of control

O=S1(=O)c2ccccc2C(O)(c2ccccc2)c2cc3ccccc3n21 (stereo not drawn)
inactive: [9] 93 % of control | [10] 96 % of control | [11] 92 % of control

COc1cc2c(cc1OC)-c1c(O)c(OC)cc3c1C(C2)N(C)CC3 (stereo not drawn)
inactive: dose: 1.12 mg/kg/injection, schedule: Q01DX009 (ip), vehicle: Klucel (hydroxypropylcellulose) (HPC) 100 % of control | dose: 1.25 mg/kg/injection, schedule: Q01DX009 (ip), vehicle: Klucel (hydroxypropylcellulose) (HPC) 103 % of control | dose: 2.25 mg/kg/injection, schedule: Q01DX009 (ip), vehicle: Klucel (hydroxypropylcellulose) (HPC) 100 % of control and 103 % of control | dose: 2.5 mg/kg/injection, schedule: Q01DX009 (ip), vehicle: Klucel (hydroxypropylcellulose) (HPC) 91 % of control | dose: 4.5 mg/kg/injection, schedule: Q01DX009 (ip), vehicle: Klucel (hydroxypropylcellulose) (HPC) 103 % of control | dose: 5.0 mg/kg/injection, schedule: Q01DX009 (ip), vehicle: Klucel (hydroxypropylcellulose) (HPC) 97 % of control | dose: 9.0 mg/kg/injection, schedule: Q01DX009 (ip), vehicle: Klucel (hydroxypropylcellulose) (HPC) 110 % of control and 95 % of control | dose: 10.0 mg/kg/injection, schedule: Q01DX009 (ip), vehicle: Klucel (hydroxypropylcellulose) (HPC) 97 % of control | dose: 18.0 mg/kg/injection, schedule: Q01DX009 (ip), vehicle: Klucel (hydroxypropylcellulose) (HPC) 93 % of control

CCn1c(=O)c2c(NC)snc2n(CC)c1=O
inactive: [3] 97 % of control | [12] 95 % of control | dose: 200.0 mg/kg/injection, schedule: Q01DX009 (ip), vehicle: saline 98 % of control

O=c1[nH]cc(NS(=O)(=O)c2ccc([N+](=O)[O-])cc2)c(=O)[nH]1
inactive: dose: 60.0 mg/kg/injection, schedule: Q01DX005 (ip), vehicle: Klucel (hydroxypropylcellulose) (HPC) 101 % of control | dose: 120.0 mg/kg/injection, schedule: Q01DX005 (ip), vehicle: Klucel (hydroxypropylcellulose) (HPC) 103 % of control | dose: 240.0 mg/kg/injection, schedule: Q01DX005 (ip), vehicle: Klucel (hydroxypropylcellulose) (HPC) 108 % of control

CN(C)C(=S)OCC1OC(OC2(CO)OC(COC(=S)N(C)C)C(O)C2O)C(O)C(O)C1O (stereo not drawn)
inactive: [7] 100 % of control | [8] 103 % of control | dose: 240.0 mg/kg/injection, schedule: Q01DX005 (ip), vehicle: saline 103 % of control

CCC[CH2][Sn](=[O])[c]1ccccc1
inactive: dose: 12.5 mg/kg/injection, schedule: Q04DX002 (ip), vehicle: saline with Tween-80 100 % of control and 119 % of control | dose: 25.0 mg/kg/injection, schedule: Q04DX002 (ip), vehicle: saline with Tween-80 103 % of control and 106 % of control | dose: 50.0 mg/kg/injection, schedule: Q04DX002 (ip), vehicle: saline with Tween-80 103 % of control and 109 % of control | dose: 100.0 mg/kg/injection, schedule: Q04DX002 (ip), vehicle: saline with Tween-80 103 % of control and 116 % of control

[Co].[N-]=C=S.[N-]=C=S.[N-]=C=S.[NH2-].[NH2-].[NH2-]
inactive: dose: 50.0 mg/kg/injection, schedule: Q01DX001 (ip), vehicle: saline with Tween-80 101 % of control | dose: 50.0 mg/kg/injection, schedule: Q01DX005 (ip), vehicle: saline 96 % of control | dose: 100.0 mg/kg/injection, schedule: Q01DX001 (ip), vehicle: saline with Tween-80 99 % of control and 94 % of control | dose: 100.0 mg/kg/injection, schedule: Q01DX005 (ip), vehicle: saline 113 % of control | dose: 200.0 mg/kg/injection, schedule: Q01DX001 (ip), vehicle: saline with Tween-80 98 % of control and 106 % of control | dose: 400.0 mg/kg/injection, schedule: Q01DX001 (ip), vehicle: saline with Tween-80 98 % of control

O=C1C=CC(=O)N1c1ccc(O)cc1
inactive: dose: 1.25 mg/kg/injection, schedule: Q01DX009 (ip), vehicle: saline sonified 95 % of control | dose: 2.5 mg/kg/injection, schedule: Q01DX009 (ip), vehicle: saline sonified 95 % of control
